For assay [1], the system named is healthy, post-menopausal person. Description: Placebo-controlled single-dose, dose-escalation study in a human. Format: in vivo. An excerpt:
A range of single oral doses was used to assess safety, tolerance, and changes in primary hyperparathyroidism markers (e.g., plasma concentrations of parathyroid hormone and ionized serum calcium) and of serum calcitonin.

The target of assay [2] is T1, osteoclast calcium receptor (Rattus norvegicus, UniProt P48442).
T1 sequence (P48442 20-1079): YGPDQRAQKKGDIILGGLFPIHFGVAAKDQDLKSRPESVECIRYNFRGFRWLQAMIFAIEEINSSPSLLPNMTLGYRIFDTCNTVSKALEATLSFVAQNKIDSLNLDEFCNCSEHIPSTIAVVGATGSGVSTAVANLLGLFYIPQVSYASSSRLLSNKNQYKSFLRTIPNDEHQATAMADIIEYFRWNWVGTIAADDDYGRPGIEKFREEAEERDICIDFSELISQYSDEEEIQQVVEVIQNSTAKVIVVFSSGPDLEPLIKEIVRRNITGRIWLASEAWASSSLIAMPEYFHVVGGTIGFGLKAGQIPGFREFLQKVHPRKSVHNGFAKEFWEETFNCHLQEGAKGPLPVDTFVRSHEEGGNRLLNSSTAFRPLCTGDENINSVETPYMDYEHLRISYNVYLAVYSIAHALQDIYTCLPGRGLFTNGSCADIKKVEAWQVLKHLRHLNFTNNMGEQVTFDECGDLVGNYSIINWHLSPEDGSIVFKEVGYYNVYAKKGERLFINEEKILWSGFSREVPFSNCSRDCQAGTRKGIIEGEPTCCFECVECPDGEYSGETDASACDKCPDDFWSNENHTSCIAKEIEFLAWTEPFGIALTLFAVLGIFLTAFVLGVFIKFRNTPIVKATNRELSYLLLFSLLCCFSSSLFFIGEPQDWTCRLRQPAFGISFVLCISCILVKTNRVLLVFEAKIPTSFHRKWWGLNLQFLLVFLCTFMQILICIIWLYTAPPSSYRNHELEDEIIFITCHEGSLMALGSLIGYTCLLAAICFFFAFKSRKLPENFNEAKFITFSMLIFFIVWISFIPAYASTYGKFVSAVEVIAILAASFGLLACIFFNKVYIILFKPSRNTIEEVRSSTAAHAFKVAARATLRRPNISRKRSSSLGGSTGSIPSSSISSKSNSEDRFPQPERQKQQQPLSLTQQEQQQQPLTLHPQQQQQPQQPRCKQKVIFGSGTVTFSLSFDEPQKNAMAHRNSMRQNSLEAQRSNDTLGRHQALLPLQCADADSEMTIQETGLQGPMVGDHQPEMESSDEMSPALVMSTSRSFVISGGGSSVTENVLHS
Briefly: [Ca2+]i (indo-1) in single rat osteoclasts. The assay is classed as cell-based.

The target in assay [3] is T2, calcium receptor (Homo sapiens, UniProt P41180).
T2 construct: poly(A)^+-enriched mRNA from human parathyroid tissue (hyperplastic glands from a case of secondary HPT); expressed in transfected cells; host or cells: Xenopus laevis oocytes injected with poly(A)+ mRNA from hyperplastic human parathyroid glands
T2 sequence (P41180 20-1078): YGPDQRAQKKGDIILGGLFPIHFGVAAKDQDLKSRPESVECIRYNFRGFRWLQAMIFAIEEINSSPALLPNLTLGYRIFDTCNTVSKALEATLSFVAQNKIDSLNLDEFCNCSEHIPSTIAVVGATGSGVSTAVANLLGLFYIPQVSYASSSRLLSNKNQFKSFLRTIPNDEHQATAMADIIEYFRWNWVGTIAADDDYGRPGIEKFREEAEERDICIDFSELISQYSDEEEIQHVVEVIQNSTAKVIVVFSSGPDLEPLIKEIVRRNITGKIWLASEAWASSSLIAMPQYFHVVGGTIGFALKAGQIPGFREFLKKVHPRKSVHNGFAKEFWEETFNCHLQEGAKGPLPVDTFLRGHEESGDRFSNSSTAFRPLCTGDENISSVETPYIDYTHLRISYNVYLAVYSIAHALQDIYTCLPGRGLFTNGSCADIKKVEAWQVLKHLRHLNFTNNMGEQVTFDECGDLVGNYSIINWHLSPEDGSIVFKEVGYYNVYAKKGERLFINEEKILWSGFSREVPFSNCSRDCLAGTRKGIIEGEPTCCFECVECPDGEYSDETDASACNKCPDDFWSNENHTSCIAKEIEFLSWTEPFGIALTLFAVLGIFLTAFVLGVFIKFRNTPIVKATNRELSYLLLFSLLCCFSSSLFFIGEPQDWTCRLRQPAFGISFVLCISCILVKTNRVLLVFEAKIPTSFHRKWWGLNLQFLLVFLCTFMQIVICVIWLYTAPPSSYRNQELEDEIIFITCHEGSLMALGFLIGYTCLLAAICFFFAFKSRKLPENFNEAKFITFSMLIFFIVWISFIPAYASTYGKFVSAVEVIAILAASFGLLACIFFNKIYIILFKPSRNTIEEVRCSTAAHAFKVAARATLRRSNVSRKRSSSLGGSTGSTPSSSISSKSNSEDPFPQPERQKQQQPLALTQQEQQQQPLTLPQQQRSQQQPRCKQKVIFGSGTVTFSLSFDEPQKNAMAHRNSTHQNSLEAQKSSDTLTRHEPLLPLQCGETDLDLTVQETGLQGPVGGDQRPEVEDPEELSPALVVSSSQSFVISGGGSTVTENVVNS
Description: Cl- current in Xenopus oocytes injected with human parathyroid cell mRNA. The assay is classed as cell-based. How it is done: Oocytes were injected with poly(A)^+-enriched mRNA from human parathyroid tissue (hyperplastic glands from a case of secondary HPT).
Following incubation, an oocyte was placed into a 100-μl plastic chamber and superfused with MBS at a flow rate of 0.5 ml/min using a peristaltic pump. Test molecules or inorganic polycations were added by rapidly moving the tubing into different buffers. Recording and current-passing electrodes were constructed from thin-wall capillary tubing pulled to a resistance of 1-3 Mohms and filled with 3 M KCl. […] Currents were recorded directly onto a strip chart recorder.
Using this screen allows one to test for an action directly on the calcium receptor. Oocytes expressing the calcium receptor also responded to several molecules active on intact parathyroid cells when screened as follows. […] This offers rather compelling evidence showing that these molecules act on the calcium receptor or on some other protein intimately associated with its function.

In the case of `COc1cccc([C@@H](C)NCCCc2ccccc2Cl)c1` [NPS R-568, (R)-(+)-N-[3-(2-chlorophenyl)propyl]-α-methyl-3-methoxybenzylamine], the “Serum PTH” value turned out to be 18 pg/mL in assay [1] (20 mg single oral dose, 1 h) and 18 pg/mL in assay [1] (240 mg single oral dose, 0.5 h). Also, in assay [1] (at higher doses), the “serum ionized calcium concentration” value was “decrease in serum ionized calcium concentration”. Besides, the serum calcitonin entry in assay [1] (at the doses studied) was “no apparent change in serum calcitonin”. In assay [1] (single oral doses), the “plasma PTH concentration” value is “transient dose-dependent decrease in plasma PTH concentration”.

For `NC[C@@H]1O[C@H](O[C@H]2[C@@H](O)[C@H](O[C@@H]3[C@@H](O)[C@H](N)C[C@H](N)[C@H]3O[C@H]3O[C@H](CN)[C@@H](O)[C@H](O)[C@H]3N)O[C@@H]2CO)[C@H](N)[C@@H](O)[C@@H]1O` [Neomycin B, neomycin B], in assay [2], the “compounds that caused any large increase in [Ca2+]i” value was “none”, the “effect on response to subsequent extracellular Ca2+” value is on record as “did not block the increase” and the “increase in [Ca2+]i” value was “failed to evoke any increase”. In assay [2] (Table 6, rat osteoclasts, indo-1), the “EC50 OSTEOCLAST” value is “inactive”. For the same compound, in assay [3] (10 mM, five water-injected oocytes), the “change in current in water-injected oocytes” value is given as “failed to cause any change in the current”. Further, the “mobilization of intracellular Ca2+ in oocytes” value in assay [3] (hexacyclen 135 μM, neomycin 100 μM, NPS 382 5 mM) is “effective”.

The record behind these values is patent US20130190407A1, “CALCIUM RECEPTOR-ACTIVE MOLECULES” (NPS Pharmaceuticals, Inc., priority 1991, published 2013).
